The subject of experiment [1] is Male Long-Evans rats (tail flick, thermal nociception). The experiment can be described thus: Rat tail flick test, repeated daily injections for 7 days (tolerance). Format: in vivo. To be noted: for tail flick latency thresholds compared with WIN alone: i.v. daily for 7 days. The procedure: (§1) Male Long-Evans rats (N=175) from Charles River (Montreal, QC, Canada) ranging from 230-380 grams, were housed in polycarbonate cages in pairs and given free access to food (Lab Diet, PMI Nutrition International, Inc., Brentwood, Mo., USA) and water. Animal quarters were kept on a reverse light-dark cycle (lights on from 7 pm to 7 am) and maintained at 22±2° C. and 45±20% relative humidity. Animals were given a minimum of 3 days prior to the experiment to acclimatize to the animal quarters.
(§2) All injections were administered in a volume of 1 ml/kg. All chemicals were dissolved in 5% dimethyl sulfoxide (DMSO; Sigma, Oakville, ON, Canada), 0.3% polyoxyethylenesorbitan monooleate (Tween® 80; Sigma, Oakville, ON, Canada) and 94.7% saline vehicle, and administered intravenously in the posterior ⅓ of the lateral tail vein.
For repeated injection testing, vehicle alone was used as a control injection (n=8). […] The control group received 1.1 ng/kg ultra-low dose of SR alone.
(§3) The tail flick apparatus consisted of a projection lamp that creates radiant heat located just below the animal-testing surface (D'Amour, E. E. and Smith, D. L. J. Pharmacol. Exp. Ther. 1941 72:74-79). The light from the lamp projected through a small hole in the testing surface and was aimed at a photocell located 25 cm above the testing surface. A digital timer, connected to the apparatus, started when the heat source was activated. When the animal flicked its tail away from the heat source, the light from the projection lamp activated the photocell, simultaneously stopping the timer and turning off the lamp. The heat intensity was calibrated to result in baseline tail flick latencies of 2-3 seconds and a 10 second cutoff was used to minimize tissue damage.
(§4) Nociceptive reflexes to a thermal stimulus were tested using the tail flick analgesia meter. This apparatus focuses a hot beam on the animal's tail. The time it takes for the rat to flick its tail away from the heat source is a measure of pain; the longer the animal leaves its tail on the hotspot, the greater the degree of pain relief. On the day prior to tail flick testing, animals were handled on the tail flick apparatus for 5-10 minutes to reduce stress-induced analgesia (Kelly, S. J. and Franklin, K. B., Neuropharmacology 1985 24:1019-1025; Terman et al., Science 1984 226:1270-1277). For single injection tested groups, animals were restrained in a small towel and a baseline tail flick latency was measured. Following the baseline measure, animals were given a drug injection and tail flick latencies were assessed every 10 minutes for 90 minutes. For the repeated injection groups, animals were given one drug injection every day for seven days. Prior to the first injection, a baseline tail flick latency was measured. Following this measure, animals were given a drug injection and tail flick latencies were assessed 10 minutes post-injection. This time point was selected because it is the point at which maximal WIN-induced antinociception is detected in this protocol. Post injection tail flick latencies were assessed on days 1, 3, 5, and 7. For all animals, tail flick latencies were converted into a percent of maximal possible effect (MPE) using the equation: MPE=[(post-injection latency−baseline latency)/(10 s cutoff−baseline latency)]×100
Separate two-way repeated measure ANOVAs were performed on the single injection groups, and repeated injection groups (see Example 2). Post-injection time (10-90 minutes for single injection groups) or day of injection (1-7 days for the repeated injection groups) were the within-subjects factors and drug group was the between-subjects factor. Whenever there were violations of sphericity, Huynh-Feldt corrections to the within-group degrees of freedom were reported. Because many drug group comparisons were irrelevant, a priori multiple comparisons were used to analyze the main drug effect using the Dunn's critical t-ratio. […]

Experiment [2] has the same test system. Kind of experiment: Rat tail flick test, single intravenous injection. Format: in vivo. To be noted: for tail flick latency (MPE) compared with same dose of WIN alone: i.v. single injection. The procedure:
as §1, §2
For single injection testing, vehicle alone was used as a control injection (n=8).
as §3
as §4, with “This time point was selected because it is the point at which maximal WIN-induced antinociception is detected in this protocol.” left out
Separate two-way repeated measure ANOVAs were performed on the single injection groups, and repeated injection groups (see Example 2). Post-injection time (10-90 minutes for single injection groups) or day of injection (1-7 days for the repeated injection groups) were the within-subjects factors and drug group was the between-subjects factor. Whenever there were violations of sphericity, Huynh-Feldt corrections to the within-group degrees of freedom were reported. Because many drug group comparisons were irrelevant, a priori multiple comparisons were used to analyze the main drug effect using the Dunn's critical t-ratio. A corrected α of 0.005 was used for the single injection groups because there were 8 comparisons, and a corrected α of 0.01 was used for the repeated injection groups because there were 4 comparisons.
For orientation: In hot-plate and tail-flick tests a longer latency is read as antinociception.

As for `CS(=O)(=O)O.Cc1c(C(=O)c2cccc3ccccc23)c2cccc3c2n1[C@H](CN1CCOCC1)CO3` [WIN, (R)-(+)-[2,3-Dihydro-5-methyl-3-(4-morpholinylmethyl)pyrrolo[1,2,3-de]-1,4-benzoxazin-6-yl]-1-naphthalenylmethanone mesylate], the “tail flick latency compared with vehicle” value in experiment [1] (WIN 0.125 mg/kg i.v. alone, daily for 7 days, tested days 1, 3, 5, 7, t(14)=10.44, P≦0.01) is “greater tail flick latencies”. For the same compound, the “degree of antinociception in the tail flick test” value in experiment [1] (WIN alone at 0.125 mg/kg i.v.) is given as “maximal antinociception”. The “time point post-injection of maximal WIN-induced antinociception” value in experiment [1] (tail flick, i.v.) is 10 min. In experiment [2] (rat, in vivo), the “degree of antinociception in the tail flick test” value is on record as “sub-maximal antinociception” and the “tail flick latency (MPE) compared with vehicle” value was “no difference”.
In the case of `Cc1c(C(=O)NN2CCCCC2)nn(-c2ccc(Cl)cc2Cl)c1-c1ccc(Cl)cc1` [SR, N-(Piperidin-1-yl)-5-(4-chlorophenyl)-1-(2,4-dichlorophenyl)-4-methyl-1H-pyrazole-3-carboxamide], the “tail flick latency thresholds compared with WIN alone” value in experiment [1] (SR 0.11 ng/kg with WIN 0.125 mg/kg, t(14)=14.35, P≦0.01) is given as “greater tail flick latency thresholds”; in experiment [1] (SR 1.1 ng/kg with WIN 0.125 mg/kg, t(14)=9.77, P≦0.01), “greater tail flick latency thresholds”. The “prevention of WIN-induced tolerance / enhancement of antinociception” value was “effective” in experiment [1] (SR to WIN dose ratio 1:100,000) and “effective” in experiment [1] (SR to WIN dose ratio 1:1,000,000, slightly (although not significant) better at preventing tolerance). Also, the “development of tolerance to the analgesic action of WIN in rat tail flick test (FIG. 2)” value in experiment [1] (daily ultra-low dose SR (1.1 or 0.11 ng/kg) with WIN 0.125 mg/kg, i.v.) is reported as “prevented the development of tolerance”. The “tail flick latency (MPE) compared with same dose of WIN alone” value in experiment [2] (SR 0.055 ng/kg mixed with WIN 0.0625 mg/kg, t(14)=3.28) is “no difference”; in experiment [2] (SR 0.083 ng/kg with WIN 0.09375 mg/kg, t(14)=8.16, P≦0.005), “longer tail flick latencies”; in experiment [2] (SR 0.55 ng/kg in combination with WIN 0.0625 mg/kg, t(14)=6.72, P≦0.005), “longer tail flick latencies”; in experiment [2] (SR 0.83 ng/kg with WIN 0.09375 mg/kg, t(14)=9.63, P≦0.005), “longer tail flick latencies”. Besides, the “antinociceptive properties of WIN in rat tail flick test (FIG. 1A, 1B)” value in experiment [2] (ultra-low dose SR (0.55, 0.055, 0.83, 0.083 ng/kg) with WIN (0.0625 or 0.09375 mg/kg), single i.v. injection) is on record as “enhanced”.

Source of the values: patent US20070060638A1, “Methods and therapies for potentiating therapeutic activities of a cannabinoid receptor agonist via administration of a cannabinoid receptor antagonist” (priority 2005, published 2007).
